Experimental data as given in patent US20250049809A1, “INHIBITORS OF MUTANT IDH1 AND IDH2” (Board of Regents, The University of Texas System, priority 2023, published 2025).

Key:
[1] = target: U87 IDH1R132H (Homo sapiens (Human), UniProt O75874, R132H); assay: U87 IDH1 R132H 2-HG cellular assay; type: cell-based; details: extracellular 2HG, 24 h treatment, IDH1 mutant-U-87 isogenic cell line
Method: The IDH1 mutant-U-87 isogenic cell line (ATCC HTB-14IG) used to test cellular inhibition is a glioma IDH1R132H mutant isogenic line derived from the parental U-87MG cell line. These cells are maintained in EMEM (ATCC 30-2003) culture media with 10% FBS and 10 U/mL Penicillin-Streptomycin. Twelve thousand cells are plated in polystyrene 384 well cell culture plates (Greiner Bio-One 781091) (12,000 cells/well) approximately 18 hours before compound treatment. Immediately before treatment, the cells are washed twice with PBS, followed by culture media replenishing. Cells are then treated with different concentrations of test compounds (5 μM to 0.3 pM) for 24 h. Extracellular 2HG levels are measured from cell culture media. For analyte extraction, 30 μL of culture media is transferred to 120 uL 100% acetonitrile in a deep 384 well plate and mixed well, followed by 5 min centrifugation at 3700 rpm at room temperature. 100 μL of supernatant is transferred to a flat bottom 384 well plate. Samples are run on the Agilent RapidFire-Mass Spectrometry instrument to detect 2HG levels. The samples from each well were aspirated for 600 ms and loaded onto a HILIC solid-phase extraction cartridge (Agilent) followed by a wash step for 3000 ms with 90% acetonitrile containing 5 mM ammonium acetate. Analytes were then eluted off the cartridge into the Agilent 6460 Triple Quad mass spectrometer with a 4500 ms elution step using 30% acetonitrile containing 5 mM ammonium acetate. The HILIC cartridge was then re-equilibrated by 90% acetonitrile containing 5 mM ammonium acetate for 500 ms. The 2HG was detected by an Agilent 6460 Triple Quad mass spectrometer in negative ion mode. Multiple reaction monitoring was used to quantify 2HG using the precursor ion and product ion at m/z 147.03 and 128.9, respectively. The percent activity of each sample is calculated by using DMSO and control compound treated references, and IC50 values are obtained using the GeneData Screener data analysis program.

[2] = target: WT IDH1 (Homo sapiens (Human), UniProt O75874); assay: WT IDH1 enzymatic activity assay (NADPH fluorescence); type: biochemical; details: enzyme assay
WT IDH1, sequence (O75874 whole entry): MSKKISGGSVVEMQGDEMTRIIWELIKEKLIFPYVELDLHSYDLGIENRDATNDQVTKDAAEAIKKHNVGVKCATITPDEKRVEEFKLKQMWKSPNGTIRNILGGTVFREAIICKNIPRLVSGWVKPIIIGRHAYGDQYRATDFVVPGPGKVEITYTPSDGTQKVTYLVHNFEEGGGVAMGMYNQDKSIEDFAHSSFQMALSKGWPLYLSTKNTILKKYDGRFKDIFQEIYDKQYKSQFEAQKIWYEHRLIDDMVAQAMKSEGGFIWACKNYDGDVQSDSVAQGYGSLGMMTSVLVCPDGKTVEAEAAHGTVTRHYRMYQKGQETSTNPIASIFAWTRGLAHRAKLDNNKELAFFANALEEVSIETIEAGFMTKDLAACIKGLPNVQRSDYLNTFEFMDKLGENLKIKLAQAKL
Method: The enzymatic activity of WT IDH1 was assessed by measuring the fluorescence of the NADPH generated in the enzymatic reaction. The assay was performed in 384 well, white ProxiPlates (PerkinElmer, 6008280) in assay buffer containing 50 mM Hepes (Life Technologies, 15630080), 50 mM KCl (Teknova, P0327), 10 mM MgCl2 (Sigma-Aldrich, M1028), 1 mM DTT (Sigma-Aldrich, 43815), 0.02% BSA (Sigma-Aldrich, A3059) at pH 7.5. The final reaction volume was 10 μL. Stock solutions of the test compounds were prepared in 100% DMSO (Sigma, D2650) and serially diluted 1:3 using 100% DMSO. 50 nL of compound were then transferred to the assay plate using the Beckman Coulter ECHO 650 Acoustic Liquid Handler for a final DMSO concentration of 0.5%. 5 μL of WT IDH1 were added to the assay plate for a final concentration of 0.5 nM. 5 μL of assay buffer alone were added to negative control wells. 5 μL of an isocitrate (Sigma-Aldrich, 58790) and NADP (Sigma-Aldrich, N5755) mixture were added to the assay plate for a final concentration of 5 μM and 15 μM, respectively. Fluorescence of NADPH (excitation: 350 nm, emission 450 nm) was immediately measured kinetically for approximately 15 minutes using the BioTek Synergy Neo plate reader.

[3] = target: mIDH2R140Q (Homo sapiens (Human), UniProt P48735, R140Q); assay: mIDH2 R140Q enzymatic activity assay (NADPH fluorescence); type: biochemical; details: enzyme assay, 1 hour preincubation; read-out: IDH2R140Q IC50
mIDH2R140Q, sequence (P48735 40-452 R140Q): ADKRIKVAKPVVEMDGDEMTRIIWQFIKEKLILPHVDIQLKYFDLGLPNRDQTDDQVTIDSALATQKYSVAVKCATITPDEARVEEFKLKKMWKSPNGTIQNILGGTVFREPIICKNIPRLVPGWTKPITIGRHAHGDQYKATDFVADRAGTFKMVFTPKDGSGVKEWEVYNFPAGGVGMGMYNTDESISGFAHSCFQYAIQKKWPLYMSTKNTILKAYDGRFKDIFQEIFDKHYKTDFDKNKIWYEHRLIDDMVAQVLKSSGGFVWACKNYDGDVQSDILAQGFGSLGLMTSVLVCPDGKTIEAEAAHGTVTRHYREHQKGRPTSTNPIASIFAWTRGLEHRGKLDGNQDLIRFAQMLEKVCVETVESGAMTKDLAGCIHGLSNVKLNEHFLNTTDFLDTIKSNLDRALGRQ
Method: The enzymatic activity of mIDH2R140Q was assessed by measuring the fluorescence of the NADPH. The assay was performed in 384 well, white ProxiPlates (PerkinElmer, 6008280) in assay buffer containing 50 mM Hepes (Life Technologies, 15630080), 50 mM KCl (Teknova, P0327), 10 mM MgCl2 (Sigma-Aldrich, M1028), 1 mM DTT (Sigma-Aldrich, 43815), 0.02% BSA (Sigma-Aldrich, A3059) at pH 7.5. The final reaction volume was 10 μL. Stock solutions of the test compounds were prepared in 100% DMSO (Sigma, D2650) and serially diluted 1:3 using 100% DMSO. 50 nL of compound were then transferred to the assay plate using the Beckman Coulter ECHO 650 Acoustic Liquid Handler for a final DMSO concentration of 0.5%. 5 μL of a mIDH2R140Q and NADPH (Santa Cruz, SC202725C) mixture were added to the assay plate for a final concentration of 3 nM and 10 μM, respectively. 5 μL of NADPH alone were added to negative control wells followed by a 1 hour preincubation at room temperature. 5 μL of alphaketoglutarate (Sigma-Aldrich, K1128) were added to the assay plate for a final concentration of 300 μM. Fluorescence of NADPH (excitation: 350 nm, emission 450 nm) was immediately measured kinetically for approximately 150 minutes using the BioTek Synergy Neo plate reader.

U87 IDH1R132H, sequence (O75874 whole entry R132H): as the sequence (O75874 whole entry) above, with R132H counted along it

IC50 [1] [nM]	IC50 [2] [µM]	IC50 [3] [nM]	Compound
0.14	3.17	1440	C=CC(=O)N1CCN(C2CCCC/C=C/CN3C(=O)OCc4cnc(nc43)N[C@@H](C)c3ccc2cc3)CC1 (stereo partly drawn) [Example 3, (3S,E)-5-(4-acryloylpiperazin-1-yl)-3-methyl-1^1,1^4-dihydro-1^2H-2-aza-1(7,1)-pyrimido[4,5-d][1,3]oxazina-4(1,4)-benzenacyclododecaphan-10-en-1^2-one]
0.2	> 16.7	1680	C=CC(=O)N1CCN(C2CCCCCCCN3C(=O)OCc4cnc(nc43)N[C@@H](C)c3ccc2cc3)CC1 (stereo partly drawn) [Example 4, (3S)-5-(4-acryloylpiperazin-1-yl)-3-methyl-1^1,1^4-dihydro-1^2H-2-aza-1(7,1)-pyrimido[4,5-d][1,3]oxazina-4(1,4)-benzenacyclododecaphan-1^2-one]
